“Also recorded” adds a separate entry of the source.
Assays:
[1] = system: recurrent aphthous stomatitis (RAS) patients; experiment: Clinical experience: 15 RAS patients treated with vitamin B12 over four years; type: in vivo, human
Description: Fifteen patients suffering from RAS were treated with vitamin B12 in our clinics over a period of four years. In most cases they have presented to the clinic with unrelated symptoms, and the oral ulcers were incidental findings on physical examination. Patients were asked whether oral ulcers were a recurring problem. Before initiating vitamin B12 therapy, a complete blood count was done and plasma vitamin B12 and folic acid levels were assessed by routine procedures.
We used one of two therapeutic regimens: • IM injections of vitamin B12 (1000 mcg weekly for the first month, and then 1000 mcg monthly as maintenance therapy) for patients with serum vitamin B12 level below 100 pg/ml, for patients with peripheral neuropathy or macrocytic anemia, and for patients coming from a low socioeconomic level (in Israel, IM vitamin B12 treatment is cheaper than oral vitamin B12). • 2. One sublingual vitamin B12 tablet (1000 mcg) per day. • No other treatment was given for RAS throughout the treatment and follow-up periods. The follow-up period ranged from 3 months to 4 years.

[2] = system: recurrent aphthous stomatitis (RAS) patients; experiment: Double-blind, placebo-controlled, randomized clinical trial of vitamin B12 in RAS; type: in vivo, human
[3] = system: recurrent aphthous stomatitis (RAS) patients; details: cited from earlier work
[4] = system: dialysis patients; details: cited from earlier work
[5] = system: sleep-waking rhythm disorders; details: 1.5 to 3 mg/day for 8 weeks, n=13; cited from earlier work
[6] = cited from earlier work
[7] = system: pernicious anemia patients presenting with tobacco amblyopia (optic neuropathy); details: four patients; parenteral; cyanocobalamin 0.25-1 mg per month, then changed to hydroxocobalamin; cited from earlier work
[8] = series of up to 12 injections with 5 mg; cited from earlier work
[9] = system: geriatric patients; details: cited from earlier work

vitamin B12 (cobalamin)
Outcome of treatment by initial vitamin B12 level (deficient or borderline vs normal) ([1]; 2 deficient, 3 marginal, 10 normal level patients): no difference in the outcome of treatment | Frequency of RAS during treatment (episodes/month), Mean ([1]; 15 RAS patients, IM 1000 mcg weekly then monthly or sublingual 1000 mcg per day, mean treatment 10.8 ± 9.7 months, before treatment 1.5 ± 1.2): 0.1 ± 0.3 episodes/month | Frequency of RAS during treatment (episodes/month), Range ([1]; 15 RAS patients, before treatment range 0.3-4.0): 0-1.0 episodes/month | Aphthous ulcers in two non-adherent patients once they received regular IM injections ([1]; IM vitamin B12): disappeared completely | Patients reporting pronounced reduction in the frequency and severity of RAS episodes ([1]; of 15 patients): four | Safety and effectiveness of vitamin B12 therapy for RAS ([2]; double-blind, placebo-controlled, randomized): confirmed the safety and effectiveness; also recorded: established the safety and effectiveness | Dependence of patient outcome on initial level of vitamin B12 ([2]; pain, number of ulcers, duration of outbreak): did not depend on initial level of vitamin B12 | Clinical response of RAS to vitamin B12 administration ([3]; three patients with low serum vitamin B12): rapid improvement and complete recovery within several weeks | Recurrence of RAS at six months' follow up ([3]; three patients): no recurrence of RAS | Adverse effects ([4]; 2.5 mg vitamin B12 in multivitamin preparation, 3 years): no adverse effects were reported | Serum vitamin B12 levels at the end of the treatment period ([4]; 106 patients, multivitamin preparation with 2.5 mg vitamin B12 at end of each dialysis period during 3 years): 4 times greater than normal | Adverse effects [5]: no adverse effects recorded | Adverse effects of long-term oral and parenteral supplementation ([6]; 1-5 mg every fortnight or month, up to at least 5 years, patients with compromised absorption): without any identified adverse effects | Adverse effects of excess vitamin B12 intake from food or supplements ([6]; healthy individuals, EC Scientific Committee on Food opinion): no adverse effects | Adverse effects in replacement therapy ([6]; oral or intramuscular dosages between 1-5 mg): no supportive evidence of adverse effects | Adverse effects of prolonged oral treatment ([6]; up to 1000 mcg/day orally, patients with compromised B12 absorption): adverse effects have not been reported

hydroxocobalamin
Effect on haematological and visual abnormalities [7]: the visual impairment also improved | Acne formation (cases) [8]: Ten

cyanocobalamin
Cognitive functions ([9]; 1 mg intramuscular weekly for 1 month, then monthly for minimum 6 months): cognitive recovery in some patients | Adverse effects ([9]; 1 mg intramuscular weekly then monthly): no adverse effects were reported | Effect on haematological and visual abnormalities [7]: restored the haematological, but not the visual abnormalities | Carcinogenic, mutagenic or teratogenic potential ([6]; Ellenbogen & Cooper, 1991): no reports attributing carcinogenic or mutagenic or teratogenic potential

Reference: US20100130441A1, “USE OF VITAMIN B12 FOR TREATMENT OF MUCOSAL LESIONS” (priority 2007, published 2010)
